Laboratory results reported in patent US20050222260A1, “(2S)-2-amino-a-{[2-(ethanimidoylamino) ethyl]thio}butanoic acid, a nitric oxide synthase inhibitor, in stabilized pharmaceutical dosage forms” (priority 2003, published 2005).

Legend:
[1] = Compatibility with standard pharmaceutical excipients of solid oral dosage forms; assay type: physicochemical; conditions: excipients conventionally used for solid oral dosage forms such as tablets; e.g. as compound with phosphoric acid
[2] = compared with the hydrochloride salts exemplified in WO98/30537; cited from earlier work

SMILES | compatibility with standard pharmaceutical excipients [1] | hygroscopicity [2]
CC(=N)NCCSCC[C@H](N)C(=O)O [(2S)-2-amino4-{[2-(ethanimidoylamino)ethyl]thio}butanoic acid] | exhibits incompatability with standard pharmaceutical excipients | –
CC(=N)NCCSCC[C@H](N)C(=O)O.O=P(O)(O)O [phosphate salt of (2S)-2-amino4-{[2-(ethanimidoylamino)ethyl]thio}butanoic acid] | – | considerably less hygroscopic
